Data set [1] relates to cathepsin K. Description: Measurement of cathepsin K inhibitory activity (decomposition of fluorescent substrate Z-Gly-Pro-Arg-MCA). In kind it is biochemical. The procedure:
Cathepsin K was prepared as follows. […] Specifically, the decomposition of 20 μM Z-Gly-Pro-Arg-MCA by cathepsin K was measured in 100 mM potassium sodium phosphate, 1 mM EDTA, 8 mM Cysteine, pH 6.0. The reaction was performed at 37° C. for 30 minutes and then quenched by the addition of 2×10^−5 M of calpeptin.

Data set [2] deals with CYP3A4 (Homo sapiens, UniProt P08684). Nature of the data set: Measurement of CYP3A4 inhibitory activity (midazolam 1'-hydroxylation in human hepatic microsomes, DI and MBI). In kind it is in vitro ADME. The following applies: human hepatic (liver) microsomes, probe midazolam (1'-hydroxylation), inventive compounds (Table 4); for IC50 at 10 min: direct inhibition, midazolam, 37° C. 10 minutes, read-out: CYP3A inhibitory IC50 (μmol/L) DI; for IC50: mechanism based inhibition, pre-incubated 37° C. 30 minutes before midazolam, read-out: CYP3A inhibitory IC50 (μmol/L) MBI. The procedure: The measurement of CYP3A4 inhibitory activity was performed with reference to the method of Newton et al. (Drug Metab. Dispos. 23, 154-158 (1995)) and the method described in JP 2007-236327 A.
A reaction mixture was prepared by mixing the compound of the present invention with midazolam as a typical substrate for CYP3A4 (see Food and Drug Administration (FDA) Guidance for Industry Drug Interaction Studies—Study Design, Data Analysis, Implications for Dosing, and Labeling Recommendations. FDA web site [online], www.fda.gov/downloads/drugs/guidancecomplianceregulatoryinformation/guidances/ucm292362.pdf), coenzyme NADPH-generating system, human hepatic microsomes, and a phosphate buffer. The reaction mixture was incubated at 37° C. for 10 minutes.
The coenzyme NADPH-generating system solution was prepared by mixing the materials shown in Table 1: the 13 mmol/L β-NADP^+ solution, the 33 mmol/L G-6-P solution, the solution of 10 U/mL G6PDH (Y) (manufactured by Oriental Yeast Co., Ltd.), and the 33 mmol/L MgCl2 solution in a ratio of 1:1:0.4:1 (v:v:v:v). […] The final concentrations of the compounds of the present invention and the comparative compounds were set at the levels considered to be necessary for the calculation of the IC50 values based on the results of the measurement performed at an arbitrary concentration in advance.
After the incubation, the reaction was quenched by the addition of an acetonitrile solution to the reaction mixture. The amount of 1′-hydroxymidazolam produced (the metabolite produced from midazolam by CYP3A4) was measured in the quenched sample with a high-performance liquid chromatography tandem mass spectrometer (LC-MS/MS). Each IC50 value for DI (direct inhibition) was determined from the amount of the produced 1′-hydroxymidazolam and the final concentration of the compound of the present invention or the comparative compound in the reaction mixture.
MBI (mechanism based inhibition) was evaluated as follows. After the reaction mixture not containing midazolam (but containing the compound of the present invention or the comparative compound, the coenzyme NADPH-generating system, the human hepatic microsomes, and the phosphate buffer) was pre-incubated at 37° C. for 30 minutes, midazolam was added to the reaction mixture. The reaction mixture was then incubated at 37° C. for 10 minutes. Subsequently, the reaction was quenched by the addition of an acetonitrile solution to the reaction mixture. The amount of 1′-hydroxymidazolam produced was measured in the quenched sample with an LC-MS/MS. As in the case of DI, each IC50 value for MBI was determined from the amount of the produced 1′-hydroxymidazolam and the final concentration of the compound of the present invention or the comparative compound in the reaction mixture.

Sequence of CYP3A4 (P08684 2-503): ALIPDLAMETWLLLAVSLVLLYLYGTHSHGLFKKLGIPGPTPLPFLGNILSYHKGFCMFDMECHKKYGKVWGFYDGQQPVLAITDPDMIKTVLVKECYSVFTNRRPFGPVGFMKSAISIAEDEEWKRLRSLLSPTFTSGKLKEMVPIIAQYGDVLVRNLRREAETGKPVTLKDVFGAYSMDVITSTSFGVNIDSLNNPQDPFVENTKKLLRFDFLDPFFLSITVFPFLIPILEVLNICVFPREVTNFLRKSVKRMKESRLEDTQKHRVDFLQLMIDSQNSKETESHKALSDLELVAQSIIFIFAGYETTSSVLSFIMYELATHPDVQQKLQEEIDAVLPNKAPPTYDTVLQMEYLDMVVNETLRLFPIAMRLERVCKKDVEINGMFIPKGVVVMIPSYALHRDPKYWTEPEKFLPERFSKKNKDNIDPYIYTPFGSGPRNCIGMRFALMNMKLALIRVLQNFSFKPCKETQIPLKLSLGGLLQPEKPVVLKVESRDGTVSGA

`CC(C)[C@H](NC(=O)C1(NC(=O)N2CCSC2)CCCCC1)C(=O)C(=O)N[C@H]1CCCCNC1=O` [Compound 1]: the CYP/CatK in data set [1] stood at 56555. In data set [2], the IC50 at 10 min worked out at 43.5 µmol/L and the IC50 was 44.4 µmol/L.
In the same order, the values of `CC(C)[C@H](NC(=O)C1(NC(=O)N2CCCC2)CCCCC1)C(=O)C(=O)N[C@H]1CCCCNC1=O` [Compound 2] are 52214, 101 µmol/L and 73.1 µmol/L.
For `CC(C)[C@H](NC(=O)C1(NC(=O)[C@H]2CCCO2)CCCCC1)C(=O)C(=O)N[C@H]1CCCCNC1=O` [Compound 3] the same measures were 40294, 208 µmol/L and 137 µmol/L.
